Test results: article PMC6943751 (The Journal of infectious diseases, 2014)

Target: Neuraminidase (NA) of A/Bethesda/956/2006, NA-R292K (Influenza A virus, UniProt F1KL32, R292K)
Assay type: biochemical, influenza A(H3N2) virus

CCC(CC)[C@H](NC(C)=O)[C@@H]1[C@H](O)[C@@H](C(=O)O)C[C@H]1N=C(N)N [Peramivir, peramivir]
Fold-Difference of IC50 compared with the IC50 of WT virus: 16.27 ± 0.89 (71) fold
IC50 (read-out: IC50, nM ± SD): 16.3 nM
